Results from ChEMBL document CHEMBL2046282, “Structure-based optimization of aminopyridines as PKCθ inhibitors” (Bioorg Med Chem Lett, 2012).

Assays:
[1] = target: Protein kinase C alpha type (Homo sapiens, UniProt P17252); assay: Inhibition of PKCalpha
[2] = Selectivity ratio of Ki for PKA to Ki for PKCtheta
[3] = target: T1, Protein kinase C theta type (Homo sapiens, UniProt Q04759); assay: Inhibition of PKCtheta-mediated IL-2 production by cell based assay
[4] = Selectivity ratio of Ki for GSK3beta to Ki for PKCtheta
[5] = target: T1, Protein kinase C theta type; assay: Inhibition of PKCtheta
[6] = Selectivity ratio of Ki for Src to Ki for PKCtheta
[7] = target: Protein kinase C delta type (Homo sapiens, UniProt Q05655); assay: Inhibition of PKCdelta
Protein kinase C delta type, sequence (Q05655 whole entry): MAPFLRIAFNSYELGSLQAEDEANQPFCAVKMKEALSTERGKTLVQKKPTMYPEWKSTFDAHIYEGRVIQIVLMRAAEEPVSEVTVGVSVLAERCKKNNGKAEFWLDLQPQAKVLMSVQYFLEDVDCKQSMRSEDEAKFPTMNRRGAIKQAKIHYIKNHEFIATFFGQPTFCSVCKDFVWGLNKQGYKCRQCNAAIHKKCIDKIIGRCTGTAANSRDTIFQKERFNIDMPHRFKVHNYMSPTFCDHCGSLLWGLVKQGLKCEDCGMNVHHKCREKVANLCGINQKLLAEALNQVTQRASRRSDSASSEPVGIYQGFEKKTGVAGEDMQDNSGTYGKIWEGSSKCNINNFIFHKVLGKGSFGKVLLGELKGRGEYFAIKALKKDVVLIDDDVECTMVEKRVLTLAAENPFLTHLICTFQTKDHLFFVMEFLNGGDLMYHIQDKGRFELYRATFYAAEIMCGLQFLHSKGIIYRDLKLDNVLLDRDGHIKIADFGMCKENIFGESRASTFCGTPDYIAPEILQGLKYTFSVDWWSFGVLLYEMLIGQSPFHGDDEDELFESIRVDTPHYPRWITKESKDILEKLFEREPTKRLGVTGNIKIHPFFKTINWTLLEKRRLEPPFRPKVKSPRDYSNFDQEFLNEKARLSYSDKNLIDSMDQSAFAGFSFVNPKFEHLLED

[8] = Permeability from basolateral to apical side of human Caco2 cells; assay type: ADME, cell-based; settings: Caco-2, read-out: permeability
[9] = Permeability from apical to basolateral side of human Caco2 cells; assay type: ADME, cell-based; settings: Caco-2, read-out: permeability
[10] = target: Tyrosine-protein kinase JAK2 (Homo sapiens, UniProt O60674); assay: Inhibition of JAK2
[11] = target: Phosphatidylinositol 4,5-bisphosphate 3-kinase catalytic subunit alpha isoform (Homo sapiens, UniProt P42336); assay: Inhibition of PI3Kalpha
[12] = Oral bioavailability in mouse at 10 mg/kg; assay type: ADME, organism-based; settings: in vivo
[13] = target: Cyclin-dependent kinase 2 (Homo sapiens, UniProt P24941); assay: Inhibition of CDK2
[14] = target: Protein kinase C beta type (Homo sapiens, UniProt P05771); assay: Inhibition of PKCbeta
[15] = Mean residence time in mouse at 3 mg/kg, iv and 10 mg/kg, po; assay type: ADME, organism-based; settings: in vivo
[16] = Clearance in mouse at 3 mg/kg, iv and 10 mg/kg, po; assay type: ADME, organism-based; settings: in vivo
[17] = Volume of distribution at steady state in mouse at 3 mg/kg, iv and 10 mg/kg, po; assay type: ADME, organism-based; settings: in vivo, read-out: Vdss
[18] = target: Rho-associated protein kinase 1 (Homo sapiens, UniProt Q13464); assay: Inhibition of ROCK1
[19] = target: Tyrosine-protein kinase ITK/TSK (Homo sapiens, UniProt Q08881); assay: Inhibition of ITK
[20] = target: Tyrosine-protein kinase ZAP-70 (Homo sapiens, UniProt P43403); assay: Inhibition of ZAP70
Tyrosine-protein kinase ZAP-70, sequence (P43403 whole entry): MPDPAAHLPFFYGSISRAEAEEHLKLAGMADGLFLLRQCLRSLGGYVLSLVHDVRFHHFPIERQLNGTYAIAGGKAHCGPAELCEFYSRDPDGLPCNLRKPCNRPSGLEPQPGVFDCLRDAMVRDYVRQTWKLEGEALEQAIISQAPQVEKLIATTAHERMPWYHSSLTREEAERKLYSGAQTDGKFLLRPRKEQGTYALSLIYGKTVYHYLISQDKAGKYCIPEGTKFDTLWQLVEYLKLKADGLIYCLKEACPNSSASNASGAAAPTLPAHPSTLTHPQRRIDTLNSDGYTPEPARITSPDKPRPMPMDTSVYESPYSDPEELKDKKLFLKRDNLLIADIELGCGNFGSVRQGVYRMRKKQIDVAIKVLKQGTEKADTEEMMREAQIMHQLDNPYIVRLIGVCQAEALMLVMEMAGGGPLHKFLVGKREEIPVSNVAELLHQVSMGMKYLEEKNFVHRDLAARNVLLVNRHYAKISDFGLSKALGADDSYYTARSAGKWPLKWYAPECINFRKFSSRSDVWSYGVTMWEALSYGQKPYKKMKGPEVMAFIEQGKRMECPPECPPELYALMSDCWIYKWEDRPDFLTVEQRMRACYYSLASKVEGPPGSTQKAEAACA

[21] = Half life in mouse at 3 mg/kg, iv and 10 mg/kg, po; assay type: ADME, organism-based; settings: in vivo
[22] = target: Receptor-type tyrosine-protein kinase FLT3 (Homo sapiens, UniProt P36888); assay: Inhibition of Flt3
Receptor-type tyrosine-protein kinase FLT3, sequence (P36888 whole entry): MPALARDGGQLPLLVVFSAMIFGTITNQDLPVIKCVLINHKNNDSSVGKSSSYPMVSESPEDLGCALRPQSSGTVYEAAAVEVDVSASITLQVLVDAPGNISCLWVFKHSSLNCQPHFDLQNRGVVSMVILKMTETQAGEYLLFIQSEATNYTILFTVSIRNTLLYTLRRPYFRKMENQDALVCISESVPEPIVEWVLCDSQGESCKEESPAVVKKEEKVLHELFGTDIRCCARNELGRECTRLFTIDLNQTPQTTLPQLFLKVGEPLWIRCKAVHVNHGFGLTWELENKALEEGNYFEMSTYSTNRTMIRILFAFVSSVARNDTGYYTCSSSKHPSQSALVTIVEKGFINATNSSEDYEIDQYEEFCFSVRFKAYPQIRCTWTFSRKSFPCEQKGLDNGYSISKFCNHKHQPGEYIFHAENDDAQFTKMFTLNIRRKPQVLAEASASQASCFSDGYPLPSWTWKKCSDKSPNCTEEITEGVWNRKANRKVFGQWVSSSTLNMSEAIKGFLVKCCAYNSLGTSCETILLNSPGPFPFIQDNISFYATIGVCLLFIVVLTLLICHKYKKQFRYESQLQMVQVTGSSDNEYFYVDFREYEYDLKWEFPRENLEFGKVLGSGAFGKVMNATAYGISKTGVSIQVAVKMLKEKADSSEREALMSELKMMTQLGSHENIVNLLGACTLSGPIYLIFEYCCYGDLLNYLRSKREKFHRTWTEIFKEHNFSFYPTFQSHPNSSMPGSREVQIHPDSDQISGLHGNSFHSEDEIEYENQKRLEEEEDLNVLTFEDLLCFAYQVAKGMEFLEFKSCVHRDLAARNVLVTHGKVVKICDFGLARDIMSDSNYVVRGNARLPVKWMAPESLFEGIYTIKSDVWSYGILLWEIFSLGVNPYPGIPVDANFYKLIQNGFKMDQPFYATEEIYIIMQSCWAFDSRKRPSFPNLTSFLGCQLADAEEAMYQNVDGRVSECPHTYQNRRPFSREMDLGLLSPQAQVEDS

[23] = target: Mitogen-activated protein kinase 3 (Homo sapiens, UniProt P27361); assay: Inhibition of ERK1
Plasma = assay: fCmax in Staphlyococcal enterotoxin B challenged Balb/c mouse plasma at 100 mg/kg, po after 2 hrs; assay type: ADME, organism-based; design: dose 100 mg/kg, route oral; settings: in vivo
[24] = target: Tyrosine-protein kinase Fyn (Homo sapiens, UniProt P06241); assay: Inhibition of FYN
Tyrosine-protein kinase Fyn, sequence (P06241 whole entry, canonical isoform): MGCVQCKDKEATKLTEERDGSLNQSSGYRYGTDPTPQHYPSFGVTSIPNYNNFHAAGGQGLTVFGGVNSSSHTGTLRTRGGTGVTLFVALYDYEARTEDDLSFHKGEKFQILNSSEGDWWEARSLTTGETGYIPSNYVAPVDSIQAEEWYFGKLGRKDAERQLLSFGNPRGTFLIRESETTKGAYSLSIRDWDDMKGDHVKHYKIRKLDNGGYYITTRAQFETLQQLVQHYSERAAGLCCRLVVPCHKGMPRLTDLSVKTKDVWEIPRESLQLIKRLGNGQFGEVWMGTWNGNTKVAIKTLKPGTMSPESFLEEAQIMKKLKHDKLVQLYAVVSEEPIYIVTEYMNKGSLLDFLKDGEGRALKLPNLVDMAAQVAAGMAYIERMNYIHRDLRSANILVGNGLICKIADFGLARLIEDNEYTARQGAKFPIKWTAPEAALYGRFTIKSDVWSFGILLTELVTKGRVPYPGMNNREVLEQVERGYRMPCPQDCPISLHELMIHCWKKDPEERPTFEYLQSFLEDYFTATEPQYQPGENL

[25] = target: Phosphatidylinositol 4,5-bisphosphate 3-kinase catalytic subunit gamma isoform (Homo sapiens, UniProt P48736); assay: Inhibition of PI3Kgamma
[26] = Apparent volume of distribution in mouse at 3 mg/kg, iv and 10 mg/kg, po; assay type: ADME, organism-based; settings: in vivo, read-out: Vz
[27] = target: Tyrosine-protein kinase Lck (Homo sapiens, UniProt P06239); assay: Inhibition of LCK
[28] = target: Serine/threonine-protein kinase PLK1 (Homo sapiens, UniProt P53350); assay: Inhibition of Plk
Serine/threonine-protein kinase PLK1, sequence (P53350 whole entry): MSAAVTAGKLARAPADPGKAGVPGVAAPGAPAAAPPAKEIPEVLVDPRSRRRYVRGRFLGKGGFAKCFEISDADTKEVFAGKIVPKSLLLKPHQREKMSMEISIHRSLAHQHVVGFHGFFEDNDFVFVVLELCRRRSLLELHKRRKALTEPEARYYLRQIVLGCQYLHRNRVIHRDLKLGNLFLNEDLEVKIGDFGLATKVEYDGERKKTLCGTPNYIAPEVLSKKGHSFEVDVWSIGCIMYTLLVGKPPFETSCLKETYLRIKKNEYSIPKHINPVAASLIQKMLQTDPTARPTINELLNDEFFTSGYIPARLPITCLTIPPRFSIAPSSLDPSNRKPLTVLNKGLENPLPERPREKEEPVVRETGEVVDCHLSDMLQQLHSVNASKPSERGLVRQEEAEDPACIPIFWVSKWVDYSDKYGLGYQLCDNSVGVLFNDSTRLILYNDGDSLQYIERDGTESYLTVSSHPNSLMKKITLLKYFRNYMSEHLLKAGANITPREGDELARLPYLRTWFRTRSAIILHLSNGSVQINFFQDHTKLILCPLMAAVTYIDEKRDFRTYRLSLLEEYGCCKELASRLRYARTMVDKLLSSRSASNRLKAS

[29] = target: Mitogen-activated protein kinase 10 (Homo sapiens, UniProt P53779); assay: Inhibition of JNK3
[30] = target: RAF proto-oncogene serine/threonine-protein kinase (Homo sapiens, UniProt P04049); assay: Inhibition of c-Raf
[31] = target: Vascular endothelial growth factor receptor 2 (Homo sapiens, UniProt P35968); assay: Inhibition of KDR
[32] = target: Tyrosine-protein kinase Lyn (Homo sapiens, UniProt P07948); assay: Inhibition of LYN
[33] = target: Protein kinase C epsilon type (Homo sapiens, UniProt Q02156); assay: Inhibition of PKCepsilon

T1 sequence (Q04759 whole entry): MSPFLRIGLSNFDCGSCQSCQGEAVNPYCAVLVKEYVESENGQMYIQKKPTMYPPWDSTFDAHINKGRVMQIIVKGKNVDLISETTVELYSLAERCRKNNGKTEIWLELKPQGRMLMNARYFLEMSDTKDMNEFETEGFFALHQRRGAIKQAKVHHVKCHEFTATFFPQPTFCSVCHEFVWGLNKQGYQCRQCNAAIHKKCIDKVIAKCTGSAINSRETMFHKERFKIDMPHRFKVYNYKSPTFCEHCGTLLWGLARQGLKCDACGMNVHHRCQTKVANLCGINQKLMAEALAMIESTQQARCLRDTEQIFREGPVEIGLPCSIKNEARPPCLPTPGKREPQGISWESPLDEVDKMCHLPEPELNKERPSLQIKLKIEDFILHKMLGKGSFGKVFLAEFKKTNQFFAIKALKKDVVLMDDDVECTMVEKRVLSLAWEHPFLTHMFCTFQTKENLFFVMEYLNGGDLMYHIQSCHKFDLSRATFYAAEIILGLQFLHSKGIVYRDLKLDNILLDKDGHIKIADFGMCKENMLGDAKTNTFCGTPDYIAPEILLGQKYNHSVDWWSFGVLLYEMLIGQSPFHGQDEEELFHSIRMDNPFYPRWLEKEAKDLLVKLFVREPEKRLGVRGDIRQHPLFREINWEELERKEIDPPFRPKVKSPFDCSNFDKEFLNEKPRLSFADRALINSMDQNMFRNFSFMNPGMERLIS

## CCCc1ccc(N2CCN[C@@H](CC(C)C)C2)nc1C(=O)c1cccnc1N
[1]
  Ki: 1230 nM

## Cc1cc(C(=O)c2cccnc2N)nc(N2CCN[C@@H](CC(C)C)C2)c1
[1]
  Ki: 459 nM

## CC(C)C[C@H]1CN(c2cccc(C(=O)c3cccnc3N)n2)CCN1
[2]
  Ratio Ki: 60
[3]
  IC50: 165 nM
[4]
  Ratio Ki: 143
[5]
  Ki: 3 nM
[6]
  Ratio Ki: > 1400
[1]
  Ki: 54 nM
[7]
  Ki: 20 nM

## Nc1ncccc1C(=O)c1cccc(N2CCC(N)C2)n1 (configuration not stated)
[5]
  Ki: 1520 nM

## Nc1ncccc1C(=O)c1cccc(N2CCCNCC2)n1
[8]
  Papp B→A: 11 ×10⁻⁶ cm/s
[9]
  Papp A→B: 9 ×10⁻⁶ cm/s

## CC(C)C[C@H]1CN(c2ccc(C3CC3)c(C(=O)c3cccnc3N)n2)CCN1
[1]
  Ki: 2650 nM

## CC(C)C[C@H]1CN(c2ccc(Cl)c(C(=O)c3cccnc3N)n2)CCN1
[2]
  Ratio Ki: 38
[3]
  IC50: 58 nM
[4]
  Ratio Ki: 255
[5]
  Ki: 2 nM
[6]
  Ratio Ki: > 4000
[1]
  Ki: 49 nM
[7]
  Ki: 22 nM

## CC(C)C[C@H]1CN(c2ccc(Cc3ccccc3)c(C(=O)c3cccnc3N)n2)CCN1
[1]
  Ki: > 1250 nM

## CC(C)C[C@H]1CN(c2ccc(OC(F)F)c(C(=O)c3cccnc3N)n2)CCN1
[2]
  Ratio Ki: 84
[3]
  IC50: 229 nM
[4]
  Ratio Ki: > 570
[5]
  Ki: 7 nM
[6]
  Ratio Ki: > 570
[1]
  Ki: 459 nM
[7]
  Ki: 87 nM

## CC(C)C[C@H]1CN(c2ccc(C(F)(F)F)c(C(=O)c3cccnc3N)n2)CCN1
[10]
  Ki: > 4000 nM
[11]
  Ki: > 4000 nM
[12]
  bioavailability: 45%
[13]
  Ki: > 4000 nM
[14]
  Ki: 260 nM
[15]
  MRT: 1.4 h
[16]
  clearance: 203 mL/min/kg
[3]
  IC50: 52 nM
[17]
  Vd: 15.8 L/kg
[18]
  Ki: > 4000 nM
[19]
  IC50: > 2000 nM
[5]
  Ki: 3 nM
[20]
  IC50: > 2000 nM
[21]
  half-life: 1.3 h
[22]
  Ki: 580 nM
[23]
  IC50: > 2000 nM
Plasma
  fCmax: 150 nM
[24]
  IC50: > 2000 nM
[25]
  Ki: > 4000 nM
[26]
  Vd: 19.7 L/kg
[27]
  IC50: > 2000 nM
[1]
  Ki: 76 nM
[28]
  Ki: > 4000 nM
[29]
  Ki: > 4000 nM
[30]
  IC50: > 2000 nM
[31]
  Ki: > 4000 nM
[7]
  Ki: 37 nM
[32]
  IC50: > 2000 nM
[33]
  Ki: 17 nM
